Assay results published in ChEMBL document CHEMBL5029145, “Discovery of AZD8154, a Dual PI3Kγδ Inhibitor for the Treatment of Asthma” (J Med Chem, 2021).

Key:
[1] = biological target: Phosphatidylinositol 4,5-bisphosphate 3-kinase catalytic subunit gamma isoform (Homo sapiens, UniProt P48736); assay: Inhibition of recombinant human PI3Kgamma assessed as reduction in ADP production using Dic8-PIP2 as substrate pre-treated for 15 mins followed by substrate addition measured after 60 mins by ADP-glo assay
Sequence of Phosphatidylinositol 4,5-bisphosphate 3-kinase catalytic subunit gamma isoform (Homo sapiens, UniProt P48736) (P48736 whole entry, canonical isoform): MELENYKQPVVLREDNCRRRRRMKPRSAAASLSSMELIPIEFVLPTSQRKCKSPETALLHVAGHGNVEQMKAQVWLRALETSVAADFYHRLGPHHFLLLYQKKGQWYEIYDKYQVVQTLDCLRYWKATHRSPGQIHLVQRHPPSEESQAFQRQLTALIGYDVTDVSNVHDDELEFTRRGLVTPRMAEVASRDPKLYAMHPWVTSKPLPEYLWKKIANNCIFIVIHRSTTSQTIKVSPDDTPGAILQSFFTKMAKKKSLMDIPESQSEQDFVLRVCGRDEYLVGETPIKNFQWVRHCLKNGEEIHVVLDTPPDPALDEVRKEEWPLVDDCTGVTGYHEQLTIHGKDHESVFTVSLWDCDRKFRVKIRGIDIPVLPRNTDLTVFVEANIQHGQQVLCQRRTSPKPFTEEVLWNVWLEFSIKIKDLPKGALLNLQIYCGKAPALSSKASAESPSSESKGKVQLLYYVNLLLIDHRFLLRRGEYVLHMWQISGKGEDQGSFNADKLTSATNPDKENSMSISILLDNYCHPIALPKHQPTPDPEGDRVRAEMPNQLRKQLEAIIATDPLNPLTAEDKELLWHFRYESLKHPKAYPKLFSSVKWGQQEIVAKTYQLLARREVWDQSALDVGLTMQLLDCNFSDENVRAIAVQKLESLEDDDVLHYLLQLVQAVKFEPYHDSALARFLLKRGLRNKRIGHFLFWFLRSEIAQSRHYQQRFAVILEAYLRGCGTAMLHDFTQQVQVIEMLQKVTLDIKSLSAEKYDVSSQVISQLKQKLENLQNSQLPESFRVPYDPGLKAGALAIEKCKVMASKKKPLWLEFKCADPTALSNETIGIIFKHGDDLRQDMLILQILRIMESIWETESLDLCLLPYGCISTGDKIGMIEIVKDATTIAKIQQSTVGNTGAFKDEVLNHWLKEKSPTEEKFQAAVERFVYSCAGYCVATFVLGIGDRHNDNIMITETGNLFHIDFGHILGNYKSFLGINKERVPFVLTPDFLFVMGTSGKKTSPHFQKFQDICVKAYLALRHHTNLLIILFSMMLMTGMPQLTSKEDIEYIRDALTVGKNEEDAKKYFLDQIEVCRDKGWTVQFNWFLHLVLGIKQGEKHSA

[2] = biological target: T1, Phosphatidylinositol 4,5-bisphosphate 3-kinase catalytic subunit delta isoform (Homo sapiens, UniProt O00329); assay: Inhibition of recombinant human PI3Kdelta assessed as reduction in ADP production using Dic8-PIP2 as substrate pre-treated for 15 mins followed by substrate addition measured after 60 mins by ADP-glo assay
T1 sequence (O00329 whole entry): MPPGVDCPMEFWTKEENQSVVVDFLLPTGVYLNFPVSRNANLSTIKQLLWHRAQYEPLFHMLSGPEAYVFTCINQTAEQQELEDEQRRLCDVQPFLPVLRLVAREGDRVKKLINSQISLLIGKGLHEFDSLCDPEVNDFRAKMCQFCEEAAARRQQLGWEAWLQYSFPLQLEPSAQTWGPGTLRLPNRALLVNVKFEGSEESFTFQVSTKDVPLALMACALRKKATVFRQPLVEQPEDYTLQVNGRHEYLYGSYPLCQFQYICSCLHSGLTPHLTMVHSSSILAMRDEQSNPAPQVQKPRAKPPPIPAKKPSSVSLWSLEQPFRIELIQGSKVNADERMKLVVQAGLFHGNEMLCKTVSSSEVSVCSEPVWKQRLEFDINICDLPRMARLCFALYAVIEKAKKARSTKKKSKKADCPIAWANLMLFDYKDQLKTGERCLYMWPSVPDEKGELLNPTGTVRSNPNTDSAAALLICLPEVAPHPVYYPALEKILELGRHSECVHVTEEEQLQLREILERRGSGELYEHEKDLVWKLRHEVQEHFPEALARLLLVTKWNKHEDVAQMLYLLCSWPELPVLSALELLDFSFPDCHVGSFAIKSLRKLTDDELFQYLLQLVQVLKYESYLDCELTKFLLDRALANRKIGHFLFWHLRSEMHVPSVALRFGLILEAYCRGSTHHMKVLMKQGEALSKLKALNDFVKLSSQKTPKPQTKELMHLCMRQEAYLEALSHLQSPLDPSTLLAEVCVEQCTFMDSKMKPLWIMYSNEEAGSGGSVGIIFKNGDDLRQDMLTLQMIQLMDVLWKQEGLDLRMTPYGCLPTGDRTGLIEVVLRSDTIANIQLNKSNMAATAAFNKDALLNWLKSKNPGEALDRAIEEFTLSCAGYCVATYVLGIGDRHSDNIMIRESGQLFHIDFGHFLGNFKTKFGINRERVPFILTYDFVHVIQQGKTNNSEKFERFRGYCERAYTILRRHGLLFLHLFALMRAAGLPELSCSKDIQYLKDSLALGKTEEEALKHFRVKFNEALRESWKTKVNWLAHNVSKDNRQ

[3] = biological target: Phosphatidylinositol 4,5-bisphosphate 3-kinase catalytic subunit gamma isoform (Mus musculus, UniProt Q9JHG7); assay: Inhibition of PI3Kgamma in C5a-stimulated mouse RAW 264 cells assessed as inhibition of AKT phosphorylation at Ser473 residue Pretreated for 15 mins followed by C5a stimulation measured after 3 mins by HTRF assay; format: cell-based
Sequence of Phosphatidylinositol 4,5-bisphosphate 3-kinase catalytic subunit gamma isoform (Mus musculus, UniProt Q9JHG7) (Q9JHG7 whole entry, canonical isoform): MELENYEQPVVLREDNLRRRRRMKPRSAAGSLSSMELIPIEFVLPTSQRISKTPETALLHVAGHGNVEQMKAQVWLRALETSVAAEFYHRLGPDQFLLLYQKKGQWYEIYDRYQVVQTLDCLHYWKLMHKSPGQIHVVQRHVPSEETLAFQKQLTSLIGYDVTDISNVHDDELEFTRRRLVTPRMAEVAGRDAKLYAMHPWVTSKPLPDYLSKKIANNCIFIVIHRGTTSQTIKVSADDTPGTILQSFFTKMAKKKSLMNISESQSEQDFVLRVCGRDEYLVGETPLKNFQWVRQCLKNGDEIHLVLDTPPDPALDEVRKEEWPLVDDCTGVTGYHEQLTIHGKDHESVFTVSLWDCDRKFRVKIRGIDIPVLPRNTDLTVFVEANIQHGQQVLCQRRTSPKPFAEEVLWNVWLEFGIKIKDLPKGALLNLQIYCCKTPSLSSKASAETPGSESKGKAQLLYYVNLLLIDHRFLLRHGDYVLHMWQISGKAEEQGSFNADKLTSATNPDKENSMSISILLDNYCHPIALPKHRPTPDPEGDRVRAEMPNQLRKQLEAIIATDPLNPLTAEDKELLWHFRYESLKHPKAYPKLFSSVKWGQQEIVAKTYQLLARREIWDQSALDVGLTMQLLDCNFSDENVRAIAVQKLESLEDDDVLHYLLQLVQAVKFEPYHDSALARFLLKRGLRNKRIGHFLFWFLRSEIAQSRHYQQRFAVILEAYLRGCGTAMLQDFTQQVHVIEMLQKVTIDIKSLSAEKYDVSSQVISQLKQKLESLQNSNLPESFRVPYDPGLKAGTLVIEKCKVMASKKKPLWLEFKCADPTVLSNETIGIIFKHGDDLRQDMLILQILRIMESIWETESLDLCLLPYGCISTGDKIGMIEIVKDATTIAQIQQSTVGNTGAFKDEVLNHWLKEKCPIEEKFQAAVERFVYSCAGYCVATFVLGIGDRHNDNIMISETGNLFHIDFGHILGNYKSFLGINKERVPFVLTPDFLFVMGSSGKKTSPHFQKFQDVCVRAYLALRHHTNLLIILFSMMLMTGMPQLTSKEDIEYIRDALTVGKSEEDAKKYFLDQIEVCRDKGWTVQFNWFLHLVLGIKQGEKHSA

[4] = biological target: T1, Phosphatidylinositol 4,5-bisphosphate 3-kinase catalytic subunit delta isoform; assay: Inhibition of PI3Kdelta in anti-IgM-stimulated human JeKo-1 cells assessed as inhibition of AKT phosphorylation at Ser473 residue incubated for 60 mins by TR-FRET assay
[5] = biological target: Phosphatidylinositol 4,5-bisphosphate 3-kinase catalytic subunit alpha isoform (Homo sapiens, UniProt P42336); assay: Inhibition of recombinant human PI3Kalpha assessed as reduction in ADP production using Dic8-PIP2 as substrate pre-treated for 15 mins followed by substrate addition measured after 60 mins by ADP-glo assay
Sequence of Phosphatidylinositol 4,5-bisphosphate 3-kinase catalytic subunit alpha isoform (P42336 whole entry, canonical isoform): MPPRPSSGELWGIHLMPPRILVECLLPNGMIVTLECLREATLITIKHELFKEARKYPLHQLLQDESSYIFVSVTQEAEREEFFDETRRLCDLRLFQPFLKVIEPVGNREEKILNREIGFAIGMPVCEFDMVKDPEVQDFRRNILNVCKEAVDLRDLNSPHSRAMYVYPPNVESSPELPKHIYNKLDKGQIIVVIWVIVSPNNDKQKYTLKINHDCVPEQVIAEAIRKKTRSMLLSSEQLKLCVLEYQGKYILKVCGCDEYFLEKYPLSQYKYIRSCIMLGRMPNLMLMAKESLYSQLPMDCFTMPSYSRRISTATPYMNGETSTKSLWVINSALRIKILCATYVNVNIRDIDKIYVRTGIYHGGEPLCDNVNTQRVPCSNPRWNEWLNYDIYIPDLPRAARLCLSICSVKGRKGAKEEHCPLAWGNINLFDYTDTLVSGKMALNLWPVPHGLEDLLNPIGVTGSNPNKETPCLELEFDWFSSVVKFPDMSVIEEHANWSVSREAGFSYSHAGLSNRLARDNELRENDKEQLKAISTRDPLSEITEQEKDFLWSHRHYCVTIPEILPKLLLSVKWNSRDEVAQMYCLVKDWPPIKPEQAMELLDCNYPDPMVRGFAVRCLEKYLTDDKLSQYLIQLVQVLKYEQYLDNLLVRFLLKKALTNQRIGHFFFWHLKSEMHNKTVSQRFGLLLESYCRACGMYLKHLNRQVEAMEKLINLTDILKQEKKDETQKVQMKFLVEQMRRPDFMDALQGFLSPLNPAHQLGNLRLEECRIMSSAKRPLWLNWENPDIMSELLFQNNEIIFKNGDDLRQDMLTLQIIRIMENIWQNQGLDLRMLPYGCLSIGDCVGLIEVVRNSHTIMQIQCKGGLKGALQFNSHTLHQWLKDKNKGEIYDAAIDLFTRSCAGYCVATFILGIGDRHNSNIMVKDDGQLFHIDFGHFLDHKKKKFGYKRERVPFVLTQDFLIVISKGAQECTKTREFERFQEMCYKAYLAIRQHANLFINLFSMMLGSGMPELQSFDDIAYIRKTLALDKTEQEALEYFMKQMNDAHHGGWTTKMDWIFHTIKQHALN

| Structure (SMILES) | IC50 [1] [nM] | IC50 [2] [nM] | IC50 [3] [nM] | IC50 [4] [nM] | IC50 [5] [nM] |
| --- | --- | --- | --- | --- | --- |
| Cc1nc2sc1-c1cc3c(c(c1)S(=O)(=O)NCCN(C)CCCNC(=O)c1cccc(n1)N2)C(=O)N([C@@H](C)C1CC1)C3 | 0.794 | 0.631 | 1 | 3.16 | 50.1 |
| CNS(=O)(=O)c1cc(-c2sc(Nc3cccc(N4C[C@H](O)CC4=O)n3)nc2C)cc2c1C(=O)N([C@@H](C)C1CC1)C2 | – | 1.26 | 2 | 7.94 | – |
| Cc1nc2sc1-c1cc3c(c(c1)S(=O)(=O)Nc1ccc(cc1)CN(C)CCCNC(=O)c1cccc(n1)N2)C(=O)N([C@@H](C)C1CC1)C3 | 7.94 | 0.794 | 3.98 | 1.58 | – |
| Cc1nc2sc1-c1cc3c(c(c1)S(=O)(=O)NCCCCCNC(=O)c1cccc(n1)N2)C(=O)N([C@@H](C)C1CC1)C3 | 1.26 | 0.501 | 1.58 | 1.26 | 31.6 |
| Cc1nc(Nc2cccc(N3CCCC3=O)n2)sc1-c1cc2c(c(S(=O)(=O)NC3COC3)c1)C(=O)N([C@@H](C)C1CC1)C2 | – | 0.794 | 1 | 5.01 | 126 |
| CCN(CC)C(=O)c1cccc(Nc2nc(C)c(-c3cc4c(c(S(=O)(=O)NC)c3)C(=O)N([C@@H](C)C3CC3)C4)s2)n1 | 3.16 | 158 | – | – | – |
| CC(=O)Nc1nc(C)c(-c2cc3c(c(S(=O)(=O)Nc4ccc(S(C)(=O)=O)cc4)c2)C(=O)N([C@@H](C)C2CC2)C3)s1 | 1 | 158 | – | – | – |
| CNS(=O)(=O)c1cc(-c2sc(Nc3cccc(C)n3)nc2C)cc2c1C(=O)N([C@@H](C)C1CC1)C2 | 1 | 50.1 | – | – | – |
| Cc1nc(Nc2cccc(-c3nc(C)n(C)n3)n2)sc1-c1cc2c(c(S(C)(=O)=O)c1)C(=O)N([C@@H](C)C1CC1)C2 | 1 | 25.1 | – | – | – |
| CNS(=O)(=O)c1cc(-c2sc(Nc3cccc(N4CCNCC4=O)n3)nc2C)cc2c1C(=O)N([C@@H](C)C1CC1)C2 | – | 0.794 | 3.98 | 6.31 | 39.8 |
| Cc1nc(-c2cccc(Nc3nc(C)c(-c4cc5c(c(S(C)(=O)=O)c4)C(=O)N([C@@H](C)C4CC4)C5)s3)n2)n(C)n1 | 1 | 1.58 | – | – | – |
| CNS(=O)(=O)c1cc(-c2sc(Nc3ccc(C(=O)NCCCN(C)C)cn3)nc2C)cc2c1C(=O)N([C@@H](C)C1CC1)C2 | 1.26 | 6.31 | – | – | – |
| CC(=O)Nc1cccc(Nc2nc(C)c(-c3cc4c(c(S(C)(=O)=O)c3)C(=O)N([C@@H](C)C3CC3)C4)s2)n1 | 1 | 15.8 | – | – | – |
| CC(=O)Nc1nc(C)c(-c2cc3c(c(S(=O)(=O)Nc4cc(C#N)cc(S(C)(=O)=O)c4)c2)C(=O)N([C@@H](C)C2CC2)C3)s1 | – | 25.1 | – | – | – |
| CC(=O)Nc1nc(C)c(-c2cc3c(c(S(=O)(=O)N(C)c4ccc(CN(C)C)cc4)c2)C(=O)N([C@@H](C)C2CC2)C3)s1 | 2.51 | 25.1 | – | – | – |
| Cc1nc(Nc2cccc(N3CCNC3=O)n2)sc1-c1cc2c(c(S(=O)(=O)NC3COC3)c1)C(=O)N([C@@H](C)C1CC1)C2 | – | 0.631 | 2 | 3.16 | 31.6 |
| COCCNC(=O)c1cccc(Nc2nc(C)c(-c3cc4c(c(S(C)(=O)=O)c3)C(=O)N([C@@H](C)C3CC3)C4)s2)n1 | 0.794 | 5.01 | – | – | – |
| Cc1nc(Nc2cccc(N3CCCOC3=O)n2)sc1-c1cc2c(c(S(C)(=O)=O)c1)C(=O)N([C@@H](C)C1CC1)C2 | – | 1.26 | 1.26 | 3.98 | 20 |
| CC(=O)Nc1nc(C)c(-c2cc3c(c(S(=O)(=O)Nc4ccc(C#N)cc4)c2)C(=O)N([C@@H](C)C2CC2)C3)s1 | 1 | 158 | – | – | – |

| Structure (SMILES) | IC50 [1] [nM] | IC50 [2] [nM] | IC50 [3] [nM] | IC50 [4] [nM] | IC50 [5] [nM] |
| --- | --- | --- | --- | --- | --- |
| CNS(=O)(=O)c1cc(-c2sc(Nc3cccc(C(=O)NCCCN(C)C)n3)nc2C)cc2c1C(=O)N([C@@H](C)C1CC1)C2 | 3.16 | 3.98 | – | – | – |
| CC(=O)Nc1nc(C)c(-c2cc3c(c(S(=O)(=O)N(C)c4cccc(C#N)c4)c2)C(=O)N([C@@H](C)C2CC2)C3)s1 | 0.794 | 50.1 | – | – | – |
| CC(=O)Nc1nc(C)c(-c2cc3c(c(S(=O)(=O)Nc4ccccc4)c2)C(=O)N([C@@H](C)C2CC2)C3)s1 | 1 | 50.1 | – | – | – |
| CC(=O)Nc1nc(C)c(-c2cc3c(c(S(=O)(=O)Nc4ccc(CN(C)C)cc4)c2)C(=O)N([C@@H](C)C2CC2)C3)s1 | 2.51 | 6.31 | – | 50.1 | – |
| CNS(=O)(=O)c1cc(-c2sc(Nc3cccc(N4CC[C@@H](O)C4=O)n3)nc2C)cc2c1C(=O)N([C@@H](C)C1CC1)C2 | – | – | 2.51 | 3.98 | 15.8 |
| CNS(=O)(=O)c1cc(-c2sc(Nc3cccc(N(C)C(C)=O)n3)nc2C)cc2c1C(=O)N([C@@H](C)C1CC1)C2 | – | 0.794 | 1 | 6.31 | – |
| CC(=O)Nc1nc(C)c(-c2cc3c(c(S(=O)(=O)Nc4cccc(CN(C)C)c4)c2)C(=O)N([C@@H](C)C2CC2)C3)s1 | 2 | 15.8 | – | – | – |
| CC(=O)N(C)c1cccc(Nc2nc(C)c(-c3cc4c(c(S(C)(=O)=O)c3)C(=O)N([C@@H](C)C3CC3)C4)s2)n1 | – | 1.26 | – | – | – |
| Cc1nc(Nc2cccc(N3CCOCC3=O)n2)sc1-c1cc2c(c(S(C)(=O)=O)c1)C(=O)N([C@@H](C)C1CC1)C2 | – | – | – | – | 50.1 |
| Cc1nc(Nc2cccc(N3CCCCC3=O)n2)sc1-c1cc2c(c(S(C)(=O)=O)c1)C(=O)N([C@@H](C)C1CC1)C2 | – | 1.26 | 1.58 | 12.6 | 31.6 |
| CNS(=O)(=O)c1cc(-c2sc(Nc3cccc(N4CCN(C)CC4=O)n3)nc2C)cc2c1C(=O)N([C@@H](C)C1CC1)C2 | – | 1.58 | 1.26 | 6.31 | 39.8 |
| CNS(=O)(=O)c1cc(-c2sc(Nc3cccc(N4CCCCC4=O)n3)nc2C)cc2c1C(=O)N([C@@H](C)C1CC1)C2 | – | – | – | – | 20 |
| CNS(=O)(=O)c1cc(-c2sc(Nc3cccc(N4CCCOC4=O)n3)nc2C)cc2c1C(=O)N([C@@H](C)C1CC1)C2 | – | 0.631 | 1 | 2.51 | 20 |
| CNS(=O)(=O)c1cc(-c2sc(Nc3cccc(N4CCOCC4=O)n3)nc2C)cc2c1C(=O)N([C@@H](C)C1CC1)C2 | – | 0.631 | 0.794 | 3.98 | 39.8 |
| Cc1nc(Nc2cccc(N3CCN(C)C3=O)n2)sc1-c1cc2c(c(S(C)(=O)=O)c1)C(=O)N([C@@H](C)C1CC1)C2 | – | 0.794 | 1 | 3.98 | 39.8 |
| Cc1nc2sc1-c1cc3c(c(c1)S(=O)(=O)Nc1ccc(cc1)CN(C)CCCCNC(=O)c1cccc(n1)N2)C(=O)N([C@@H](C)C1CC1)C3 | 10 | 1 | 5.01 | 1 | – |
| CC(=O)Nc1nc(C)c(-c2cc3c(c(S(=O)(=O)Nc4cccc(C#N)c4)c2)C(=O)N([C@@H](C)C2CC2)C3)s1 | – | 10 | – | 126 | – |
| CC(=O)Nc1nc(C)c(-c2cc3c(c(S(=O)(=O)Nc4cccc(S(C)(=O)=O)c4)c2)C(=O)N([C@@H](C)C2CC2)C3)s1 | 1.26 | 3.16 | 15.8 | 31.6 | – |
| Cc1nc(Nc2cccc(-c3ocnc3CO)n2)sc1-c1cc2c(c(S(C)(=O)=O)c1)C(=O)N([C@@H](C)C1CC1)C2 | 0.631 | 2 | – | – | – |
